Measurements reported in ChEMBL document CHEMBL1201862, “PubChem BioAssay data set” (2004).
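Exposure lasted 48 hours, with cells grown in 96-well plates and compounds tested at five concentrations. Abbreviation: GI50, concentration required for 50% inhibition of growth.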 Activity calls are given as the source filed them. Rule as the data show it: active = GI50 up to about 1.1 µM and inactive = higher. Residues, ends and D or L forms follow the SMILES beside them. *: point of attachment. OBn = c1ccc(CO*)cc1

How the values were obtained:
Test in all cases: DTP human tumour cell line panel, 48 h
MDA-MB-231 = tested on: MDA-MB-231
HCT-116 = tested on: HCT-116
BT-549 = tested on: BT-549
RPMI-8226 = tested on: RPMI-8226
SNB-75 = tested on: SNB-75
SK-MEL-28 = tested on: SK-MEL-28
CAKI-1 = tested on: CAKI-1
T47D = tested on: T47D
K562 = tested on: K562
NCI-H226 = tested on: NCI-H226
HCC 2998 = tested on: HCC 2998
Malme-3M = tested on: Malme-3M
IGROV-1 = tested on: IGROV-1
SK-MEL-5 = tested on: SK-MEL-5
SF-539 = tested on: SF-539
MCF7 = tested on: MCF7
HT-29 = tested on: HT-29
OVCAR-5 = tested on: OVCAR-5
KM12 = tested on: KM12
SN12C = tested on: SN12C
786-0 = tested on: 786-0
HL-60 = tested on: HL-60
COLO 205 = tested on: COLO 205
Hs-578T = tested on: Hs-578T
LOX IMVI = tested on: LOX IMVI
DU-145 = tested on: DU-145
OVCAR-4 = tested on: OVCAR-4
HCT-15 = tested on: HCT-15
RXF 393 = tested on: RXF 393
HOP-92 = tested on: HOP-92
UACC-257 = tested on: UACC-257
OVCAR-8 = tested on: OVCAR-8
SF-295 = tested on: SF-295
SR = tested on: SR
NCI-H522 = tested on: NCI-H522
NCI/ADR-RES = tested on: NCI/ADR-RES
UO-31 = tested on: UO-31
MDA-MB-435 = tested on: MDA-MB-435
CCRF-CEM = tested on: CCRF-CEM
SK-OV-3 = tested on: SK-OV-3
SF-268 = tested on: SF-268
OVCAR-3 = tested on: OVCAR-3
PC-3 = tested on: PC-3
SW-620 = tested on: SW-620
HOP-62 = tested on: HOP-62
UACC-62 = tested on: UACC-62
MDA-N = tested on: MDA-N
SNB-19 = tested on: SNB-19
NCI-H460 = tested on: NCI-H460
ACHN = tested on: ACHN
A549 = tested on: A549
EKVX = tested on: EKVX
U-251 = tested on: U-251
NCI-H23 = tested on: NCI-H23
M14 = tested on: M14
MOLT-4 = tested on: MOLT-4
TK-10 = tested on: TK-10

For C=O.NNCCc1n[nH]c(=O)n1N, the GI50 (MDA-MB-231) was > 100 µM (inactive), the GI50 (HCT-116) was > 100 µM (inactive) and the GI50 (BT-549) was > 100 µM (inactive). The GI50 (RPMI-8226) was > 100 µM (inactive), the GI50 (SNB-75) was 97.7 µM (inactive) and the GI50 (SK-MEL-28) was > 100 µM (inactive). The GI50 (CAKI-1) was > 100 µM (inactive), the GI50 (T47D) was > 100 µM (inactive) and the GI50 (K562) was > 100 µM (inactive). The GI50 (NCI-H226) was > 100 µM (inactive), the GI50 (HCC 2998) was > 100 µM (inactive) and the GI50 (Malme-3M) was > 100 µM (inactive). For the same compound, the GI50 (IGROV-1) was > 100 µM (inactive), the GI50 (SK-MEL-5) was > 100 µM (inactive) and the GI50 (SF-539) was > 100 µM (inactive). For the same compound, the GI50 (MCF7) was > 100 µM (inactive), the GI50 (HT-29) was > 100 µM (inactive) and the GI50 (OVCAR-5) was > 100 µM (inactive). The GI50 (KM12) was > 100 µM (inactive), the GI50 (SN12C) was > 100 µM (inactive) and the GI50 (786-0) was > 100 µM (inactive). The GI50 (HL-60) was > 100 µM (inactive), the GI50 (COLO 205) was > 100 µM (inactive) and the GI50 (Hs-578T) was > 100 µM (inactive). For the same compound, the GI50 (LOX IMVI) was > 100 µM (inactive), the GI50 (DU-145) was > 100 µM (inactive) and the GI50 (OVCAR-4) was > 100 µM (inactive). The GI50 (HCT-15) was > 100 µM, the GI50 (RXF 393) was > 100 µM (inactive) and the GI50 (HOP-92) was > 100 µM (inactive). The GI50 (UACC-257) was > 100 µM (inactive), the GI50 (OVCAR-8) was > 100 µM (inactive) and the GI50 (SF-295) was > 100 µM (inactive). For the same compound, the GI50 (SR) was > 100 µM (inactive), the GI50 (NCI-H522) was > 100 µM (inactive) and the GI50 (NCI/ADR-RES) was > 100 µM (inactive). The GI50 (UO-31) was > 100 µM (inactive), the GI50 (MDA-MB-435) was > 100 µM (inactive) and the GI50 (CCRF-CEM) was > 100 µM (inactive). The GI50 (SK-OV-3) was > 100 µM (inactive), the GI50 (SF-268) was > 100 µM (inactive) and the GI50 (OVCAR-3) was > 100 µM (inactive). The GI50 (PC-3) was > 100 µM (inactive), the GI50 (SW-620) was > 100 µM (inactive) and the GI50 (HOP-62) was > 100 µM (inactive). For the same compound, the GI50 (UACC-62) was > 100 µM (inactive), the GI50 (MDA-N) was > 100 µM (inactive) and the GI50 (SNB-19) was > 100 µM (inactive). The GI50 (NCI-H460) was > 100 µM (inactive), the GI50 (ACHN) was > 100 µM (inactive) and the GI50 (A549) was > 100 µM (inactive). The GI50 (EKVX) was > 100 µM (inactive), the GI50 (U-251) was > 100 µM (inactive) and the GI50 (NCI-H23) was > 100 µM (inactive). The GI50 (M14) was > 100 µM (inactive) and the GI50 (MOLT-4) was > 100 µM (inactive).
With NC(CCC(=O)OCc1ccccc1)C(=O)NC(CCC(=O)OCc1ccccc1)C(=O)O (stereo unspecified) (H-Glu(OBn)-Glu(OBn)-OH; configuration not given here) the GI50 (MDA-MB-231) was > 100 µM (inactive), the GI50 (HCT-116) was > 100 µM (inactive) and the GI50 (BT-549) was > 100 µM (inactive). For the same compound, the GI50 (RPMI-8226) was > 100 µM (inactive), the GI50 (SNB-75) was > 100 µM (inactive) and the GI50 (SK-MEL-28) was > 100 µM (inactive). For the same compound, the GI50 (CAKI-1) was > 100 µM (inactive), the GI50 (T47D) was > 100 µM (inactive) and the GI50 (K562) was > 100 µM (inactive). The GI50 (NCI-H226) was > 100 µM (inactive), the GI50 (HCC 2998) was > 100 µM (inactive) and the GI50 (Malme-3M) was > 100 µM (inactive). The GI50 (IGROV-1) was > 100 µM (inactive), the GI50 (SK-MEL-5) was > 100 µM (inactive) and the GI50 (MCF7) was > 100 µM (inactive). The GI50 (HT-29) was > 100 µM (inactive), the GI50 (OVCAR-5) was > 100 µM (inactive) and the GI50 (KM12) was > 100 µM (inactive). For the same compound, the GI50 (SN12C) was > 100 µM (inactive), the GI50 (786-0) was > 100 µM (inactive) and the GI50 (HL-60) was > 100 µM (inactive). The GI50 (COLO 205) was > 100 µM (inactive), the GI50 (Hs-578T) was > 100 µM (inactive) and the GI50 (LOX IMVI) was > 100 µM (inactive). For the same compound, the GI50 (DU-145) was > 100 µM (inactive), the GI50 (OVCAR-4) was > 100 µM (inactive) and the GI50 (HCT-15) was > 100 µM. The GI50 (RXF 393) was > 100 µM (inactive), the GI50 (HOP-92) was > 100 µM (inactive) and the GI50 (OVCAR-8) was > 100 µM (inactive). For the same compound, the GI50 (SF-295) was > 100 µM (inactive), the GI50 (SR) was > 100 µM (inactive) and the GI50 (NCI-H522) was > 100 µM (inactive). The GI50 (NCI/ADR-RES) was > 100 µM (inactive), the GI50 (UO-31) was > 100 µM (inactive) and the GI50 (MDA-MB-435) was > 100 µM (inactive). The GI50 (CCRF-CEM) was > 100 µM (inactive), the GI50 (SK-OV-3) was > 100 µM (inactive) and the GI50 (TK-10) was > 100 µM (inactive). For the same compound, the GI50 (SF-268) was > 100 µM (inactive), the GI50 (OVCAR-3) was > 100 µM (inactive) and the GI50 (PC-3) was > 100 µM (inactive). The GI50 (SW-620) was > 100 µM (inactive), the GI50 (HOP-62) was > 100 µM (inactive) and the GI50 (UACC-62) was > 100 µM (inactive). The GI50 (MDA-N) was > 100 µM (inactive), the GI50 (SNB-19) was > 100 µM (inactive) and the GI50 (NCI-H460) was > 100 µM (inactive). The GI50 (ACHN) was > 100 µM (inactive), the GI50 (A549) was > 100 µM (inactive) and the GI50 (EKVX) was > 100 µM (inactive). The GI50 (U-251) was > 100 µM (inactive), the GI50 (NCI-H23) was > 100 µM (inactive) and the GI50 (M14) was > 100 µM (inactive). The GI50 (MOLT-4) was > 100 µM (inactive).
